Laboratory results reported in ChEMBL document CHEMBL3885861, “Open TG-GATES”.

Species on record: Rattus norvegicus
Test: Open TG-GATES - Regimen: Daily Repeat
Assay type: toxicity, organism-based, Sprague-Dawley
Design: regimen Daily Repeat, gender Male, age 6 weeks
Conditions: in vivo, po, 50 mg/kg, route gavage, dose level High; for APTT / Bas / Eos / Fbg / Hb / Ht / Lym / MCH / MCHC / MCV / Mono / Neu / PT / Plat / RBC / Ret / WBC: tissue Blood; for LIVER: tissue Liver; for A/G / ALP / ALT / AST / BUN / CRE / Ca / Cl / DBIL / GLC / IP / K / LDH / Na / PL / RALB / TBIL / TC / TG / TP / gamma-GTP: tissue Plasma

For `C=C(C)[C@H]1Cc2c(ccc3c2O[C@@H]2COc4cc(OC)c(OC)cc4[C@@H]2C3=O)O1` [ROTENONE], the TERMINAL_BW (72 h, time 3 day) was 199.2 g, the APTT (72 h, time 3 day) was 16.3 s and the Bas (72 h, time 3 day) was 0%. The Eos (72 h, time 3 day) was 0.8%, the Fbg (72 h, time 3 day) was 198.6 mg/dL and the Hb (72 h, time 3 day) was 13.7 g/dL. It also gave a Ht (72 h, time 3 day) of 41.6%, a Lym (72 h, time 3 day) of 72.4% and an MCH (72 h, time 3 day) of 21 pg. For the same molecule, the MCHC (72 h, time 3 day) was 32.9%, the MCV (72 h, time 3 day) was 64 fL and the Mono (72 h, time 3 day) was 8%. For the same molecule, the Neu (72 h, time 3 day) was 18.8%, the PT (72 h, time 3 day) was 12.2 s and the Plat (72 h, time 3 day) was 126.4 x10_4/uL. For the same molecule, the RBC (72 h, time 3 day) was 649.4 x10_4/ul, the Ret (72 h, time 3 day) was 3.3% and the WBC (72 h, time 3 day) was 91.2 x10_2/uL. The LIVER (72 h, time 3 day) was 9.9 g, the A/G (72 h, time 3 day) was 2.4 and the ALP (72 h, time 3 day) was 1100.4 IU/L. It also gave an ALT (72 h, time 3 day) of 25.4 IU/L, an AST (72 h, time 3 day) of 65.4 IU/L and a BUN (72 h, time 3 day) of 16 mg/dL. The CRE (72 h, time 3 day) was 0.4 mg/dL, the Ca (72 h, time 3 day) was 11.8 mg/dL and the Cl (72 h, time 3 day) was 106.6 meq/L. For the same molecule, the DBIL (72 h, time 3 day) was 0.01 mg/dL, the GLC (72 h, time 3 day) was 191.2 mg/dL and the IP (72 h, time 3 day) was 7.5 mg/dL. It also gave a K (72 h, time 3 day) of 4.2 meq/L, an LDH (72 h, time 3 day) of 93.8 IU/L and a Na (72 h, time 3 day) of 142.8 meq/L. For the same molecule, the PL (72 h, time 3 day) was 136.4 mg/dL, the RALB (72 h, time 3 day) was 3.9 g/dL and the TBIL (72 h, time 3 day) was 0.034 mg/dL. It also gave a TC (72 h, time 3 day) of 82.6 mg/dL, a TG (72 h, time 3 day) of 52.6 mg/dL and a TP (72 h, time 3 day) of 5.5 g/dL. For the same molecule, the gamma-GTP (72 h, time 3 day) was 0.8 IU/L, the TERMINAL_BW ([…], time 7 day) was 230.8 g and the TERMINAL_BW ([…], time 14 day) was 251.7 g. It also gave a TERMINAL_BW ([…], time 28 day) of 288.8 g, an APTT ([…], time 7 day) of 16.5 s and a Bas ([…], time 7 day) of 0%. For the same molecule, the Eos ([…], time 7 day) was 0.6%, the Fbg ([…], time 7 day) was 196.4 mg/dL and the Hb ([…], time 7 day) was 13.5 g/dL. It also gave a Ht ([…], time 7 day) of 41.1%, a Lym ([…], time 7 day) of 74.8% and an MCH ([…], time 7 day) of 21 pg. It also gave an MCHC ([…], time 7 day) of 32.9%, an MCV ([…], time 7 day) of 63.9 fL and a Mono ([…], time 7 day) of 6%. It also gave a Neu ([…], time 7 day) of 18.6%, a PT ([…], time 7 day) of 12 s and a Plat ([…], time 7 day) of 117.6 x10_4/uL. For the same molecule, the RBC ([…], time 7 day) was 643.6 x10_4/ul, the Ret ([…], time 7 day) was 4.2% and the WBC ([…], time 7 day) was 95.8 x10_2/uL. The APTT ([…], time 14 day) was 16.5 s, the Bas ([…], time 14 day) was 0% and the Eos ([…], time 14 day) was 0.8%. For the same molecule, the Fbg ([…], time 14 day) was 190.2 mg/dL, the Hb ([…], time 14 day) was 14.7 g/dL and the Ht ([…], time 14 day) was 44.3%. The Lym ([…], time 14 day) was 69.4%, the MCH ([…], time 14 day) was 20 pg and the MCHC ([…], time 14 day) was 33.1%. It also gave an MCV ([…], time 14 day) of 60.5 fL, a Mono ([…], time 14 day) of 7.4% and a Neu ([…], time 14 day) of 22.4%. The PT ([…], time 14 day) was 12.6 s, the Plat ([…], time 14 day) was 128.2 x10_4/uL and the RBC ([…], time 14 day) was 733.8 x10_4/ul. The Ret ([…], time 14 day) was 3.6%, the WBC ([…], time 14 day) was 98.4 x10_2/uL and the APTT ([…], time 28 day) was 19.4 s. It also gave a Bas ([…], time 28 day) of 0%, an Eos ([…], time 28 day) of 0.6% and a Fbg ([…], time 28 day) of 163.2 mg/dL. The Hb ([…], time 28 day) was 16 g/dL, the Ht ([…], time 28 day) was 48.6% and the Lym ([…], time 28 day) was 80%. It also gave an MCH ([…], time 28 day) of 18.8 pg, an MCHC ([…], time 28 day) of 33% and an MCV ([…], time 28 day) of 56.9 fL. For the same molecule, the Mono ([…], time 28 day) was 4.2%, the Neu ([…], time 28 day) was 15% and the PT ([…], time 28 day) was 14.2 s. For the same molecule, the Plat ([…], time 28 day) was 117.8 x10_4/uL, the RBC ([…], time 28 day) was 859 x10_4/ul and the Ret ([…], time 28 day) was 1.5%. It also gave a WBC ([…], time 28 day) of 88.4 x10_2/uL, an LIVER ([…], time 7 day) of 12.9 g and an LIVER ([…], time 14 day) of 13.1 g. The LIVER ([…], time 28 day) was 12 g, the A/G ([…], time 7 day) was 2.2 and the ALP ([…], time 7 day) was 1181.6 IU/L. The ALT ([…], time 7 day) was 26.2 IU/L, the AST ([…], time 7 day) was 65.8 IU/L and the BUN ([…], time 7 day) was 18 mg/dL. It also gave a CRE ([…], time 7 day) of 0.4 mg/dL, a Ca ([…], time 7 day) of 11.7 mg/dL and a Cl ([…], time 7 day) of 104 meq/L. For the same molecule, the DBIL ([…], time 7 day) was 0.014 mg/dL, the GLC ([…], time 7 day) was 198.6 mg/dL and the IP ([…], time 7 day) was 6.4 mg/dL. The K ([…], time 7 day) was 4.2 meq/L, the LDH ([…], time 7 day) was 103.6 IU/L and the Na ([…], time 7 day) was 141 meq/L. It also gave a PL ([…], time 7 day) of 137.4 mg/dL, an RALB ([…], time 7 day) of 4 g/dL and a TBIL ([…], time 7 day) of 0.022 mg/dL. It also gave a TC ([…], time 7 day) of 73 mg/dL, a TG ([…], time 7 day) of 80 mg/dL and a TP ([…], time 7 day) of 5.8 g/dL. It also gave a gamma-GTP ([…], time 7 day) of 0.8 IU/L, an A/G ([…], time 14 day) of 2.4 and an ALP ([…], time 14 day) of 1140.4 IU/L. The ALT ([…], time 14 day) was 43.2 IU/L, the AST ([…], time 14 day) was 101.8 IU/L and the BUN ([…], time 14 day) was 22.4 mg/dL. For the same molecule, the CRE ([…], time 14 day) was 0.4 mg/dL, the Ca ([…], time 14 day) was 11.5 mg/dL and the Cl ([…], time 14 day) was 105.2 meq/L. It also gave a DBIL ([…], time 14 day) of 0.014 mg/dL, a GLC ([…], time 14 day) of 178.8 mg/dL and an IP ([…], time 14 day) of 7.4 mg/dL. It also gave a K ([…], time 14 day) of 4.3 meq/L, an LDH ([…], time 14 day) of 108.4 IU/L and a Na ([…], time 14 day) of 140.6 meq/L. For the same molecule, the PL ([…], time 14 day) was 145.8 mg/dL, the RALB ([…], time 14 day) was 3.9 g/dL and the TBIL ([…], time 14 day) was 0.032 mg/dL. The TC ([…], time 14 day) was 68.4 mg/dL, the TG ([…], time 14 day) was 121.2 mg/dL and the TP ([…], time 14 day) was 5.6 g/dL. The gamma-GTP ([…], time 14 day) was 1 IU/L, the A/G ([…], time 28 day) was 2.2 and the ALP ([…], time 28 day) was 639.6 IU/L. It also gave an ALT ([…], time 28 day) of 20.2 IU/L, an AST ([…], time 28 day) of 53 IU/L and a BUN ([…], time 28 day) of 20.8 mg/dL. The CRE ([…], time 28 day) was 0.4 mg/dL, the Ca ([…], time 28 day) was 10.6 mg/dL and the Cl ([…], time 28 day) was 107 meq/L. For the same molecule, the DBIL ([…], time 28 day) was 0.01 mg/dL, the GLC ([…], time 28 day) was 188.2 mg/dL and the IP ([…], time 28 day) was 5.9 mg/dL. The K ([…], time 28 day) was 4.4 meq/L, the LDH ([…], time 28 day) was 79 IU/L and the Na ([…], time 28 day) was 142.8 meq/L. For the same molecule, the PL ([…], time 28 day) was 122.4 mg/dL, the RALB ([…], time 28 day) was 3.9 g/dL and the TBIL ([…], time 28 day) was 0.038 mg/dL. It also gave a TC ([…], time 28 day) of 67.6 mg/dL, a TG ([…], time 28 day) of 65.2 mg/dL and a TP ([…], time 28 day) of 5.8 g/dL. The gamma-GTP ([…], time 28 day) was 1 IU/L.
